The source of these data is ChEMBL document CHEMBL1146917, “Discovery and structure-activity relationship of 2-phenyl-oxazole-4-carboxamide derivatives as potent apoptosis inducers” (Bioorg Med Chem Lett, 2006).

As a reminder, the EC50 is the concentration giving half of the maximal effect. What is called solubility is the dissolved amount per volume that the medium holds. A higher solubility goes with much dissolved substance. The GI50 is the concentration at which growth is held to half of that of the control. As a reminder, the inhibition in vivo is the share of the control response that was lost under treatment. Lower therefore signals little suppression.

SMILES strings stand for the structures. In brackets after ≈: the same amount, converted by molar mass. Activity calls are given as the source filed them. The rule behind the calls is not given here. A value given as a limit tells only on which side of the number the result lay.

Data set [1] relates to DLD-1. The data set is described as follows: Induction of apoptosis in human DLD1 cells assessed as activation of caspases by HTS assay. In kind it is functional, cell-based.
Data set [2] is described as follows: Solubility of the compound. In kind it is physicochemical.
The test system of data set [3] is DLD-1. The data set is described as follows: Growth inhibition of human DLD1 cells. It is filed as functional.
Data set [4] relates to DLD-1. The data set is described as follows: Inhibition of tumor growth in BALB/c nude mouse implanted with DLD1 cells at 100 mg/kg, ip, qd. The conditions noted are these: DLD-1, ip. In kind it is functional.
For data set [5], the system named is DLD-1. The data set is described as follows: Activity against caspase-mediated PARP cleavage in human DLD1 cells at 1 uM after 48 hrs by Western blot analysis. It is filed as functional, cell-based. Background: A western blot detects proteins with antibodies after separation by electrophoresis.
Data set [6] concerns DLD-1. The data set is described as follows: Inhibition of tumor growth in BALB/c nude mouse implanted with DLD1 cells at 50 mg/kg, ip, bid. In kind it is functional. The conditions noted are these: DLD-1, ip.
Data set [7] relates to DLD-1. The data set is described as follows: Activity against DNA laddering in DLD1 cells at 1 uM after 48 hrs. In kind it is functional, cell-based. Particulars: Homo sapiens.
Data set [8] has as its system DLD-1. The data set is described as follows: Inhibition of tumor growth in BALB/c nude mouse implanted with DLD1 cells at 50 mg/kg, ip, qd. In kind it is functional. The conditions noted are these: DLD-1, ip.

Regarding `O=C(Cc1ccccc1)NCc1ccc(-c2nc(C(=O)N3CCC(F)(F)CC3)co2)cc1`, the EC50 in the data set with DLD-1 [1] is 979 nM.
Still for that read-out and setting: the result for `CC1CCCN(C(=O)c2coc(-c3ccc(CNC(=O)Cc4ccccc4)cc3)n2)C1` (stereo unspecified) reads 193 nM; that for `COC1CCN(C(=O)c2coc(-c3ccc(CNC(=O)Cc4ccccc4)cc3)n2)CC1`, 5230 nM.
In the case of `O=C(Cc1ccccc1)NCc1ccc(-c2nc(C(=O)N3CCCC(F)(F)C3)co2)cc1`, in the data set with DLD-1 [1], the EC50 amounted to 20 nM. Also, in data set [2], the solubility was less than 10 µM. This compound also yielded a 50% growth inhibitory concentration (GI50) in the data set with DLD-1 [3] of 15 nM.
Turning to `O=C(Cc1ccc(F)cc1)NCc1ccc(-c2nc(C(=O)N3CCCCC3)co2)cc1`, the half-maximal effective concentration (EC50) in the data set on DLD-1 [1] was 233 nM.
On the same count and under the same terms, the result for `O=C(Cc1ccc(O)cc1)NCc1ccc(-c2nc(C(=O)N3CCCCC3)co2)cc1` reads 73 nM; that for `O=C(Cc1ccccc1)NCc1ccc(-c2nc(C(=O)N3CCCC(F)C3)co2)cc1` (stereo unspecified), 85 nM.
The same measure, in the same setting: with `O=C(Cc1cccc(Cl)c1)NCc1ccc(-c2nc(C(=O)N3CCCCC3)co2)cc1` the figure was 533 nM; with `O=C(Cc1ccccc1)NCc1ccc(-c2nc(C(=O)N3CCCCCC3)co2)cc1`, 33 nM.
Turning to `O=C(Cc1ccccc1)NCc1ccc(-c2nc(C(=O)N3CCCCCCC3)co2)cc1`, the concentration giving a half-maximal response (EC50) in the data set on DLD-1 [1] is 108 nM.
For `O=C(Cc1ccc(Cl)cc1)NCc1ccc(-c2nc(C(=O)N3CCCCC3)co2)cc1`, the EC50 in the data set on DLD-1 [1] was 274 nM.
For `O=C(Cc1ccccc1)NCc1ccc(-c2nc(C(=O)N3CCCCC3)co2)cc1`, the concentration for a half-maximal effect (EC50) in the data set on DLD-1 [1] is 65 nM. The compound also displayed a solubility in data set [2] of 47 µM (≈ 19 µg/mL). Further, it took 258 nM to inhibit growth in the data set with DLD-1 [3] by half (GI50).
For `O=C(Cc1ccccc1)NCc1ccc(-c2nc(C(=O)N3CC=CCC3)co2)cc1`, the EC50 with DLD-1 [1] amounted to 108 nM.
Still for that read-out and setting: with `O=C(Cc1cccc(O)c1)NCc1ccc(-c2nc(C(=O)N3CCCCC3)co2)cc1` the figure was 139 nM; with `O=C(Cc1cccc(F)c1)NCc1ccc(-c2nc(C(=O)N3CCCCC3)co2)cc1`, 72 nM; with `O=C(Cc1ccccc1)NCc1ccc(-c2nc(C(=O)N3CC4CC4C3)co2)cc1` (stereo unspecified), 318 nM.
The compound `O=C(Cc1ccc(OC(F)(F)F)cc1)NCc1ccc(-c2nc(C(=O)N3CCCCC3)co2)cc1` returned an inhibition in vivo at 100 mg/kg in the data set with DLD-1 [4] of 38%. The EC50 in the data set on DLD-1 [1] stood at 270 nM. The same compound displayed a solubility in data set [2] of 44 µM (≈ 21.4 µg/mL). In addition, the result with DLD-1 [5] and in the data set with DLD-1 [7] was Active. The values for the inhibition in vivo at 50 mg/kg with DLD-1 [6] and with DLD-1 [8] were 63% and 21%, respectively. Halving of growth with DLD-1 [3] (GI50) required 229 nM.
`C[C@@H]1CC[C@H](C)N1C(=O)c1coc(-c2ccc(CNC(=O)Cc3ccccc3)cc2)n1`: in the data set with DLD-1 [1], the half-maximal effective concentration (EC50) was found to be 34 nM.
For the compound `COC1CCCN(C(=O)c2coc(-c3ccc(CNC(=O)Cc4ccccc4)cc3)n2)C1` (stereo unspecified), the EC50 with DLD-1 [1] turned out to be 259 nM.
The same measure, in the same setting: the result for `CC1CCN(C(=O)c2coc(-c3ccc(CNC(=O)Cc4ccccc4)cc3)n2)CC1` reads 258 nM.
Still for that read-out and setting: with `Cc1ccc(CC(=O)NCc2ccc(-c3nc(C(=O)N4CCCCC4)co3)cc2)cc1` the figure was 142 nM; with `O=C(Cc1ccccc1F)NCc1ccc(-c2nc(C(=O)N3CCCCC3)co2)cc1`, 65 nM; with `O=C1CCCN(C(=O)c2coc(-c3ccc(CNC(=O)Cc4ccccc4)cc3)n2)C1`, 235 nM.
Same read-out and setting: with `O=C(Cc1ccccc1)NCc1ccc(-c2nc(C(=O)N3CCCC3)co2)cc1` the figure was 553 nM; with `O=C(Cc1ccccc1)NCc1ccc(-c2nc(C(=O)N3CCCC(Cl)C3)co2)cc1` (stereo unspecified), 119 nM.
Consider `O=C(Cc1ccccc1O)NCc1ccc(-c2nc(C(=O)N3CCCCC3)co2)cc1`, for which the EC50 in the data set with DLD-1 [1] was 1010 nM.
Take `O=C(Cc1cccs1)NCc1ccc(-c2nc(C(=O)N3CCCCC3)co2)cc1`: the EC50 in the data set with DLD-1 [1] was 59 nM. The solubility in data set [2] amounted to 29 µM (≈ 11.9 µg/mL). This compound gave a GI50 with DLD-1 [3] of 75 nM.
In the case of `O=C(Cc1ccccc1)NCc1ccc(-c2nc(C(=O)N3CCC(F)CC3)co2)cc1`, the EC50 with DLD-1 [1] was found to be 304 nM.
Still for that read-out and setting: the result for `O=C1CCN(C(=O)c2coc(-c3ccc(CNC(=O)Cc4ccccc4)cc3)n2)CC1` reads 115 nM.
Same read-out and setting: with `O=C(Cc1ccccc1)NCc1ccc(-c2nc(C(=O)N3CCCC(O)C3)co2)cc1` (stereo unspecified) the figure was 196 nM.
Take `O=C(Cc1ccccc1)NCc1ccc(-c2nc(C(=O)N3CCC(Cl)CC3)co2)cc1`: the EC50 in the data set with DLD-1 [1] came out at 492 nM.
As for `O=C(Cc1ccccc1)NCc1ccc(-c2nc(C(=O)N3CCC(CO)CC3)co2)cc1`, the 50% effective concentration (EC50) in the data set with DLD-1 [1] amounted to 196 nM.
On the same count and under the same terms, the result for `O=C(Cc1ccccc1)NCc1ccc(-c2nc(C(=O)N3CCC(O)CC3)co2)cc1` reads 150 nM.
